Six molecules from US11602534B2, “Pyrimidine derivative kinase inhibitors” (HEFEI INSTITUTES OF PHYSICAL SCIENCE, CHINESE ACADEMY OF …, priority 2017, dated 2023) can be followed below.

Counter-ions that a name gives are not always drawn.

One assay has as its system BaF3. The assay can be described thus: Proliferation of BaF3 cells, CCK8 cell viability assay. Format: cell-based. Conditions: Mus musculus, 72 hours. The method in brief: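 Mouse BaF3 ± TEL-kinase fusion (human cKIT/PDGFRα/PDGFRβ kinase region, MSCV-Puro retrovirus, IL-3 removed → kinase-addicted). Viability by CCK8 (dehydrogenase), GI50 μM.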
The test system of another assay is Tel-cKit-BaF3. The assay can be described thus: Proliferation of Tel-cKit-BaF3 cells, CCK8 cell viability assay. Format: cell-based, mouse. Conditions: Mus musculus; 72 hours, CCK8; stably expressing cKIT kinase. The method, boiled down:
(§1)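 Parental murine BaF3 and IL-3-independent BaF3 transformants driven by TEL–cKIT, TEL–PDGFRα or TEL–PDGFRβ, with human kinase domains stably transduced by retrovirus. CCK8 dehydrogenase read-out gives GI50 (μM).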

The test system of the next assay is Tel-cKit/T670I-BaF3. The assay can be described thus: Proliferation of Tel-cKit/T670I-BaF3 cells, CCK8 cell viability assay. Format: cell-based. Conditions: Mus musculus, 72 hours, stably expressing cKIT/T670I. The method in brief: as §1
The subject of another assay is Tel-FLT3-BaF3. In words: Proliferation of Tel-FLT3-BaF3 cells, CCK8 cell viability assay. Conditions: Mus musculus, 72 hours, stably expressing FLT3 kinase. The class given is cell-based. The method in brief:
(§2)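 Human kinase-region sequences were PCR-amplified, fused behind N-terminal TEL in MSCV-Puro and stably introduced into mouse BaF3 by retrovirus. IL-3 was then removed to give kinase-dependent lines. Compound effects on these and on parental BaF3 are scored as GI50 (μM) via CCK8 viable-cell quantification.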

In another assay the test system is FLT3-ITD-BaF3. In words: Proliferation of FLT3-ITD-BaF3 cells, CCK8 cell viability assay. Format: cell-based. Conditions: Mus musculus, 72 hours, stably expressing FLT3/ITD. The method, boiled down: as §2
On the technique in general: Tetrazolium assays rely on reduction of a dye to a coloured formazan, in cell work by metabolically active cells.

In a further assay the test system is Tel-RET-BaF3. The assay can be described thus: Proliferation of Tel-RET-BaF3 cells, CCK8 cell viability assay. The class given is cell-based. Conditions: Mus musculus, 72 hours, stably expressing RET kinase. The source says:
In this example the following cells were used: […] (purchased from ATCC), mouse P210-BaF3 (stably expressing BCR-ABL mutant activated kinase), mouse P210/T315I-BaF3 (stably expressing BCR-ABL/T315I mutant activated kinase), mouse FLT3-ITD-BaF3 (stably expressing FLT3/ITD mutant activated kinase), mouse TEL-FLT3-BaF3 (stably expressing FLT3 kinase), mouse TEL-cKIT-BaF3 (stably expressing cKIT kinase), mouse BaF3-tel/T670I-cKit (stably expressing cKIT/T670I mutant activated kinase), mouse Tel-VEGFR2-BaF3 (stably expressing VEGFR2 kinase), mouse Tel-PDGFRα-BaF3 (stably expressing PDGFRα kinase), mouse Tel-PDGFRβ-BaF3 (stably expressing PDGFRβ kinase), mouse Tel-RET-BaF3 (stably expressing RET kinase). The above cell lines were all constructed by our laboratory according to the following method: the kinase region sequences of human P210, P210/T315I, FLT3/ITD, FLT3, cKIT, cKIT/T670I, VEGFR2, PDGFRα, PDGFRβ, RET were respectively amplified by PCR, and inserted into MSCV-Puro vectors having N-terminal TEL or TPR fragments (Clontech). The vectors were stably transfected into mouse BaF3 cells by means of retrovirus, and the growth factor IL-3 were removed, eventually obtaining cell lines that depend on transferred protein P210, P210/T315I, FLT3/ITD, FLT3, cKIT, cKIT/T670I, VEGFR2, PDGFRα, PDGFRβ, or RET.
GI50 (unit: μM) was calculated by quantifying the number of living cells based on quantitative measurement of reductive dehydrogenase in living cells with CCK8 cell viability assay kit (Bestbio, China).

Another assay relates to TEL-PDGFRα-BaF3. The assay can be described thus: Proliferation of TEL-PDGFRα-BaF3 cells, CCK8 cell viability assay. Format: cell-based. Conditions: Mus musculus, 72 hours, stably expressing PDGFRα kinase. The method, boiled down: as §1
In the next assay the test system is TEL-PDGFRβ-BaF3. The assay can be described thus: Proliferation of TEL-PDGFRβ-BaF3 cells, CCK8 cell viability assay. The class given is cell-based. Conditions: Mus musculus, 72 hours, stably expressing PDGFRβ kinase. The method in brief:
as §1

The subject of another assay is TEL-VEGFR2-BaF3. The assay can be described thus: Proliferation of TEL-VEGFR2-BaF3 cells, CCK8 cell viability assay. The class given is cell-based. Conditions: Mus musculus, 72 hours, stably expressing VEGFR2 kinase. The method, boiled down: as §2

The term GI50 denotes the concentration that inhibits growth by half. A high value points to lower sensitivity of the cells.

Turning to `Cc1ccc(NC(=O)Nc2ccc(Oc3cc(N4CCN(C(=O)OC(C)(C)C)C[C@H]4CO)ncn3)cc2)cc1C(F)(F)F` [Example 110, (S)-3-(hydroxymethyl)-4-(6-(4-(3-(4-methyl-3-(trifluoromethyl)phenyl)ureido)phenoxy)pyrimidin-4-yl)piperazin-1-tert-butyl Formate], the GI50 in the assay on BaF3 is over 10000 nM; with Tel-cKit-BaF3, 2250 nM; in the assay with Tel-cKit/T670I-BaF3 it was 5290 nM; with Tel-FLT3-BaF3, 4860 nM; with FLT3-ITD-BaF3 it was 182 nM; in the assay with Tel-RET-BaF3 it was 6210 nM. Also, the GI50 in the assay on TEL-PDGFRα-BaF3 was 60 nM; in the assay with TEL-PDGFRβ-BaF3, 270 nM; in the assay on TEL-VEGFR2-BaF3 it was 4620 nM.
Consider `CC[C@@H]1CN(C(=O)OC(C)(C)C)CCN1c1cc(Oc2ccc(NC(=O)Nc3ccc(C)c(C(F)(F)F)c3)cc2)ncn1` [Example 111, (R)-3-ethyl-4-(6-(4-(3-(4-methyl-3-(trifluoromethyl)phenyl)ureido)phenoxy)pyrimidin-4-yl)piperazin-1-tert-butyl formate], for which the 50% growth inhibitory concentration (GI50) is over 10000 nM in the assay on BaF3; 6050 nM with Tel-cKit-BaF3; 8600 nM in the assay with Tel-cKit/T670I-BaF3; 6160 nM with Tel-FLT3-BaF3; 141 nM in the assay on FLT3-ITD-BaF3; over 10000 nM in the assay with Tel-RET-BaF3. The GI50 in the assay with TEL-PDGFRα-BaF3 stood at 190 nM; with TEL-PDGFRβ-BaF3, 690 nM; in the assay on TEL-VEGFR2-BaF3, 1740 nM.
On to `Cc1ccc(NC(=O)Nc2ccc(Oc3cc(N[C@H](C)CNC(=O)OC(C)(C)C)ncn3)cc2)cc1C(F)(F)F` [Example 112, (R)-(2-((6-(4-(3-(4-methyl-3-(trifluoromethyl)phenyl)ureido)phenoxy)pyrimidin-4-yl)amino)propyl)aminotert-butyl Formate], for which the concentration for 50% growth inhibition (GI50) in the assay with BaF3 was determined as 4120 nM; in the assay on Tel-cKit-BaF3, 1070 nM; in the assay with Tel-cKit/T670I-BaF3, 886 nM; with Tel-FLT3-BaF3, 599 nM; with FLT3-ITD-BaF3 it was 58 nM; in the assay on Tel-RET-BaF3 it was 3820 nM. Further, the values for the concentration for 50% growth inhibition (GI50) with TEL-PDGFRα-BaF3, with TEL-PDGFRβ-BaF3 and in the assay on TEL-VEGFR2-BaF3 were 23 nM, 51 nM and 390 nM, respectively.
Take `Cc1ccc(NC(=O)Nc2ccc(Oc3cc(N[C@H](C)CN)ncn3)cc2)cc1C(F)(F)F` [Example 113, (R)-1-(4-((6-((1-aminoprop-2-yl)amino)pyrimidin-4-yl)oxy)phenyl)-3-(4-methyl-3-(trifluoromethyl)phenyl)urea]: the GI50 is over 10000 nM in the assay on BaF3; 3220 nM with Tel-cKit-BaF3; 8540 nM with Tel-cKit/T670I-BaF3; 638 nM with Tel-FLT3-BaF3; 259 nM with FLT3-ITD-BaF3; over 10000 nM in the assay with Tel-RET-BaF3. The figures for the GI50 in the assay on TEL-PDGFRα-BaF3, in the assay on TEL-PDGFRβ-BaF3 and in the assay on TEL-VEGFR2-BaF3 were 86 nM, 170 nM and 1260 nM, respectively.
Turning to `Cc1ccc(NC(=O)Nc2ccc(Oc3cc(N4CCOC[C@H]4C)ncn3)cc2)cc1C(F)(F)F` [Example 114, (R)-1-(4-methyl-3-(trifluoromethyl)phenyl)-3-(4-((6-(3-methylmorpholino)pyrimidin-4-yl)oxy)phenyl)urea], the GI50 came to 6050 nM in the assay with BaF3; 287 nM in the assay on Tel-cKit-BaF3; 1010 nM with Tel-cKit/T670I-BaF3; 1090 nM in the assay with Tel-FLT3-BaF3; 37 nM in the assay on FLT3-ITD-BaF3; 3830 nM with Tel-RET-BaF3. The 50% growth inhibitory concentration (GI50) with TEL-PDGFRα-BaF3 was determined as 5 nM; with TEL-PDGFRβ-BaF3, 30 nM; in the assay on TEL-VEGFR2-BaF3, 1330 nM.
`Cc1ccc(NC(=O)Nc2ccc(Oc3cc(N4CCN(C(=O)CC(C)(C)C)C[C@H]4C)ncn3)cc2)cc1C(F)(F)F` [Example 115, (R)-1-(4-((6-(4-(3,3-dimethylbutyryl)-2-methylpiperazin-1-yl)pyrimidin-4-yl)oxy)phenyl)-3-(4-methyl-3-(trifluoromethyl)phenyl)urea]: the GI50 with BaF3 came to 9870 nM; with Tel-cKit-BaF3 it was 2120 nM; in the assay on Tel-cKit/T670I-BaF3 it was 4250 nM; with Tel-FLT3-BaF3, 2190 nM; in the assay with FLT3-ITD-BaF3 it was 413 nM; in the assay on Tel-RET-BaF3 it was 3970 nM. The figures for the GI50 in the assay with TEL-PDGFRα-BaF3, in the assay on TEL-PDGFRβ-BaF3 and in the assay on TEL-VEGFR2-BaF3 were 52 nM, 190 nM and 2280 nM, respectively.
